Like-named read-outs stand apart in the source and are kept apart here.

In one assay the test system is MCF-7 cells. Nature of the assay: MTT assay of metabolic activity, MCF-7. It counts as cell-based, human. As to the method:
(§1) The GW7604-Alk-PtCl3 complexes (with exclusion of GW7604-Prop-PtCl3) were investigated for cytotoxic effects in SKBr3 (ER-negative, COX-2-positive, Figure 6), MCF-7 (ERα-positive, COX-negative, Figure 6), and noncancerous TSA-201 (human embryonal kidney) cells at concentrations of 10–30 μM using an established MTT (3-(4,5-dimethylthiazol-2-yl)-2,5-diphenyltetrazolium bromide) assay.[60],[69]
(§2) After incubation for 72 h, the amounts of surviving, metabolically active cells were quantified based on their ability to transform the water-soluble yellow dye MTT to a purple formazan, which can be analyzed by UV–vis spectroscopy.
(§3) The exponentially growing cells were seeded at a density of 1750 (MCF-7), 2000 (SKBr3), and 1250 (TSA-201) cells/well into clear flat-bottom 96-well plates in triplicate. Following 24 h of incubation at 37 °C in a humidified atmosphere (5% CO2/95% air), the compounds [freshly prepared stock solutions in DMF, diluted with DMEM to the desired concentration (final DMF concentration of 0.1% (v/v))] were added to reach the indicated concentrations. After another 72 h of incubation, the cellular metabolic activity was measured employing an MTT assay. By adding predissolved MTT reagent in PBS at a final concentration of 0.5 mg/mL, the metabolic activity can be determined via an enzymatic conversion to a purple formazan salt. After 3 h, the medium was aspirated, and 200 μL of DMSO was added to dissolve the formed formazan crystals. The absorbance was measured at 570 and 690 nm (turbidity assessment) using an EnSpire plate reader (PerkinElmer, Waltham, MA, USA). Solvent-treated cells without a compound served as the positive control. Metabolic activity was calculated by the following equation [drawing 1]
On the technique in general: Tetrazolium assays rely on reduction of a dye to a coloured formazan, in cell work by metabolically active cells.

For assay [1], the target named is T1, ERα ligand-binding domain (Homo sapiens, UniProt P03372).
T1 construct: purchased Invitrogen
T1 sequence (P03372 311-547 limits assumed): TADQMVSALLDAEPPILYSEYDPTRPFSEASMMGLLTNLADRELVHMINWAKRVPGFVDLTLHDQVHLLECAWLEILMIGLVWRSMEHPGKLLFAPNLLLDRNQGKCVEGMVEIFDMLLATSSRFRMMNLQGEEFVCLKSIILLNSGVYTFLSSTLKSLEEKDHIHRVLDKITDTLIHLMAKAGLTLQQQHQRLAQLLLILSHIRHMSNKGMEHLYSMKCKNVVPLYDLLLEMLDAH
Nature of the assay: TR-FRET ligand binding assay, isolated LBD of ERα. The protocol: (§4) A modified LanthaScreen TR-FRET alpha/beta assay was performed, according to the manufacturer’s protocol (Invitrogen, Carlsbad, […]), to determine the binding affinity to the isolated LBD. […] Measurements were carried out on a multimode plate reader, Tecan Spark (Tecan, Männedorf, Switzerland). Calculations and visualization were performed with GraphPad Prism 8.0 (GraphPad Software, San Diego, CA, USA).
(In TR-FRET formats the signal depends on donor and acceptor labels being close together.)

The target of assay [2] is T2, ERβ ligand-binding domain (Homo sapiens, UniProt Q92731).
T2 construct: purchased Invitrogen
T2 sequence (Q92731 264-498 limits assumed): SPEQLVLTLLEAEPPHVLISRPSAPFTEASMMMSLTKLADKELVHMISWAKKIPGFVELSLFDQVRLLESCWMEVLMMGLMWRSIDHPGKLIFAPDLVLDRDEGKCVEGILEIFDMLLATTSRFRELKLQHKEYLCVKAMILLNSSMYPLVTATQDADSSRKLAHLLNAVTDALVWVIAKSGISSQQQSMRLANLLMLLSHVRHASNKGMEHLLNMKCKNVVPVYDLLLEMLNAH
Nature of the assay: TR-FRET ligand binding assay, isolated LBD of ERβ. As to the method:
as §4

A further assay has as its system TSA-201 cells. Nature of the assay: MTT assay of metabolic activity, noncancerous TSA-201. It counts as cell-based, human. As to conditions: 72 h, MTT; read-out: IC50 TSA-210. As to the method:
as §1, §2, §3

A further assay concerns SKBr3 cells. Nature of the assay: MTT assay of metabolic activity, SKBr3. It counts as cell-based, human. The following applies: 72 h, MTT. The protocol: as §1, §2, §3
Setting [3] is: Homo sapiens, MCF7, 72 h, MTT, read-out: IC50 MCF-7.

Broadly, the IC50 is the concentration at which inhibition is half-maximal. Turning to `C=CCCOC(=O)/C=C/c1ccc(C(=C(CC)c2ccccc2)c2ccc(O)cc2)cc1` (mixture of isomers) [GW7604-But, But-3-en-1-yl (E)-3-(4-((E/Z)-1-(4-hydroxyphenyl)-2-phenylbut-1-en-1-yl)phenyl) Acrylate], in the assay on MCF-7 cells (setting [3]), the IC50 is more than 30 µM.
For `CCC(=C(c1ccc(O)cc1)c1ccc(C=CC(=O)O)cc1)c1ccccc1` (mixture of isomers) [GW7604, (E)-3-(4-((E/Z)-1-(4-hydroxyphenyl)-2-phenylbut-1-en-1-yl)phenyl)acrylic acid], in the assay with MCF-7 cells (Homo sapiens, MCF7, read-out: IC50, reduction of growth of MCF-7 cells), the IC50 amounted to 0.171 µM.
As for `C=CCCCOC(=O)/C=C/c1ccc(C(=C(CC)c2ccccc2)c2ccc(O)cc2)cc1` (mixture of isomers) [GW7604-Pent, Pent-4-en-1-yl (E)-3-(4-((E/Z)-1-(4-hydroxyphenyl)-2-phenylbut-1-en-1-yl)phenyl) Acrylate], in assay [1] (RBA(E2) = 100%), the “RBA (ERα)” value was found to be 0.90%. In addition, the IC50 in assay [1] (read-out: IC50 (ERα), displacement from the LBS) is 0.0391 µM; in the assay on MCF-7 cells (setting [3]), more than 30 µM; in assay [2] (read-out: IC50 (ERβ), displacement from the LBS), 0.105 µM. Besides, in assay [2] (RBA(E2) = 100%), the “RBA (ERβ)” value is listed as 0.23%.
In the case of “Potassium trichlorido[η^2-(hex-5-en-1-yl (E)-3-(4-((E/Z)-1-(4-hydroxyphenyl)-2-phenylbut-1-en-1-yl)phenyl)acrylate)]platinate(II) [GW7604-Hex-PtCl3]”, the IC50 is more than 30 µM with TSA-201 cells; 20.5 µM in the assay with MCF-7 cells (72 h, MTT, read-out: IC50 MCF-7); more than 30 µM in the assay with SKBr3 cells.

(Values after publication PMC10983001, “Development of Cytotoxic GW7604-Zeise’s Salt Conjugates as Multitarget Compounds with Selectivity for Estrogen Receptor- Positive Tumor Cells” (Journal of Medicinal Chemistry, 2024).)
